# Assay results published in ChEMBL document CHEMBL4507294, “Data for DCP probe MSD-CYP11B2” (2021).
# Assays:
# [1] = target: Ribosomal protein S6 kinase alpha-6 (Homo sapiens) (UniProt Q9UK32); settings: Compound concentration 1000.0 nM
# [2] = target: Alpha-2A adrenergic receptor (Homo sapiens) (UniProt P08913); settings: Compound concentration 10.0 uM
# [3] = target: Non-receptor tyrosine-protein kinase TYK2 (Homo sapiens) (UniProt P29597); settings: Compound concentration 1000.0 nM
# [4] = target: Cyclin-dependent kinase 4 (Homo sapiens) (UniProt P11802); settings: Compound concentration 1000.0 nM
# [5] = target: Dual specificity mitogen-activated protein kinase kinase 6 (Homo sapiens) (UniProt P52564); settings: Compound concentration 1000.0 nM
# [6] = target: Mitogen-activated protein kinase 12 (Homo sapiens) (UniProt P53778); settings: Compound concentration 1000.0 nM
# [7] = target: Epidermal growth factor receptor (Homo sapiens) (UniProt P00533); settings: Compound concentration 1000.0 nM
# [8] = target: Casein kinase I isoform gamma-3 (Homo sapiens) (UniProt Q9Y6M4); settings: Compound concentration 1000.0 nM
# [9] = target: Serine/threonine-protein kinase MARK1 (Homo sapiens) (UniProt Q9P0L2); settings: Compound concentration 1000.0 nM
# [10] = target: MAP kinase-activated protein kinase 5 (Homo sapiens) (UniProt Q8IW41); settings: Compound concentration 1000.0 nM
# [11] = target: Tyrosine-protein kinase Fes/Fps (Homo sapiens) (UniProt P07332); settings: Compound concentration 1000.0 nM
# [12] = target: Fibroblast growth factor receptor 3 (Homo sapiens) (UniProt P22607); settings: Compound concentration 1000.0 nM
# [13] = target: cAMP-dependent protein kinase catalytic subunit PRKX (Homo sapiens) (UniProt P51817); settings: Compound concentration 1000.0 nM
# [14] = target: Histamine H2 receptor (Homo sapiens) (UniProt P25021); settings: Compound concentration 10.0 uM
# [15] = target: Mitogen-activated protein kinase kinase kinase 12 (Homo sapiens) (UniProt Q12852); settings: Compound concentration 1000.0 nM
# [16] = target: Serine/threonine-protein kinase/endoribonuclease IRE1 (Homo sapiens) (UniProt O75460); settings: Compound concentration 1000.0 nM
# [17] = target: Mitogen-activated protein kinase kinase kinase 10 (Homo sapiens) (UniProt Q02779); settings: Compound concentration 1000.0 nM
# [18] = target: Mitogen-activated protein kinase kinase kinase 3 (Homo sapiens) (UniProt Q99759); settings: Compound concentration 1000.0 nM
# [19] = target: Serine/threonine-protein kinase Chk1 (Homo sapiens) (UniProt O14757); settings: Compound concentration 1000.0 nM
# [20] = target: Wee1-like protein kinase 2 (Homo sapiens) (UniProt P0C1S8); settings: Compound concentration 1000.0 nM
# [21] = target: Mitogen-activated protein kinase kinase kinase 13 (Homo sapiens) (UniProt O43283); settings: Compound concentration 1000.0 nM
# [22] = target: Casein kinase I isoform epsilon (Homo sapiens) (UniProt P49674); settings: Compound concentration 1000.0 nM
# [23] = target: Serine/threonine-protein kinase ULK1 (Homo sapiens) (UniProt O75385); settings: Compound concentration 1000.0 nM
# [24] = target: Tyrosine-protein kinase Fyn (Homo sapiens) (UniProt P06241); settings: Compound concentration 1000.0 nM
# [25] = target: Mitogen-activated protein kinase kinase kinase kinase 1 (Homo sapiens) (UniProt Q92918); settings: Compound concentration 1000.0 nM
# [26] = target: RAC-alpha serine/threonine-protein kinase (Homo sapiens) (UniProt P31749); settings: Compound concentration 1000.0 nM
# [27] = target: 5-hydroxytryptamine receptor 5A (Homo sapiens) (UniProt P47898); settings: Compound concentration 10.0 uM
# [28] = target: Cyclin-dependent kinase-like 3 (Homo sapiens) (UniProt Q8IVW4); settings: Compound concentration 1000.0 nM
# [29] = target: Phosphatidylinositol 4-phosphate 5-kinase type-1 alpha (Homo sapiens) (UniProt Q99755); settings: Compound concentration 1000.0 nM
# [30] = target: Muscarinic acetylcholine receptor M3 (Homo sapiens) (UniProt P20309); settings: Compound concentration 10.0 uM
# [31] = target: Dual specificity tyrosine-phosphorylation-regulated kinase 1B (Homo sapiens) (UniProt Q9Y463); settings: Compound concentration 1000.0 nM
# [32] = target: Mitogen-activated protein kinase kinase kinase 1 (Homo sapiens) (UniProt Q13233); settings: Compound concentration 1000.0 nM
# [33] = target: LIM domain kinase 1 (Homo sapiens) (UniProt P53667); settings: Compound concentration 1000.0 nM
# [34] = tested on: Epidermal growth factor receptor (Homo sapiens), P00533 [T790M]; settings: Compound concentration 1000.0 nM
# [35] = target: Microtubule-associated serine/threonine-protein kinase 1 (Homo sapiens) (UniProt Q9Y2H9); settings: Compound concentration 1000.0 nM
# [36] = target: Serine/threonine-protein kinase Sgk3 (Homo sapiens) (UniProt Q96BR1); settings: Compound concentration 1000.0 nM
# [37] = tested on: Tyrosine-protein kinase ABL1 (Homo sapiens), P00519 [E255K]; settings: Compound concentration 1000.0 nM
# [38] = target: Mitogen-activated protein kinase kinase kinase 15 (Homo sapiens) (UniProt Q6ZN16); settings: Compound concentration 1000.0 nM
# [39] = target: Mitogen-activated protein kinase kinase kinase 5 (Homo sapiens) (UniProt Q99683); settings: Compound concentration 1000.0 nM
# [40] = target: Bone morphogenetic protein receptor type-1A (Homo sapiens) (UniProt P36894); settings: Compound concentration 1000.0 nM
# [41] = target: Ephrin type-A receptor 8 (Homo sapiens) (UniProt P29322); settings: Compound concentration 1000.0 nM
# [42] = target: Myosin light chain kinase, smooth muscle (Homo sapiens) (UniProt Q15746); settings: Compound concentration 1000.0 nM
# [43] = target: Mitogen-activated protein kinase 15 (Homo sapiens) (UniProt Q8TD08); settings: Compound concentration 1000.0 nM
# [44] = target: Glycogen synthase kinase-3 alpha (Homo sapiens) (UniProt P49840); settings: Compound concentration 1000.0 nM
# [45] = target: 5-hydroxytryptamine receptor 2A (Homo sapiens) (UniProt P28223); settings: Compound concentration 10.0 uM
# Chain of 5-hydroxytryptamine receptor 2A (Homo sapiens) (P28223 whole entry): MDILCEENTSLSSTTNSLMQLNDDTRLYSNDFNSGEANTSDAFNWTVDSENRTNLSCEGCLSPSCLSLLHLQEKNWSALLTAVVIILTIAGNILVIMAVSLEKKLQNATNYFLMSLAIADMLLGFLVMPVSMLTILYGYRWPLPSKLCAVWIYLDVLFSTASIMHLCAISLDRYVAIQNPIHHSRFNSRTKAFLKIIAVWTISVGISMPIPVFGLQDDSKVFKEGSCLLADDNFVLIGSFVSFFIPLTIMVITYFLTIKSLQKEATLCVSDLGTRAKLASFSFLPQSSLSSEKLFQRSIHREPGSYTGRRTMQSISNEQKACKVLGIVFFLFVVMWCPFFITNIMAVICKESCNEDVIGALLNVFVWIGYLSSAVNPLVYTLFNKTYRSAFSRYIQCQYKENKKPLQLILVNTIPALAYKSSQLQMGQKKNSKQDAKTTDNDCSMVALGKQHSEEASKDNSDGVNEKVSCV
# Chain of Phosphatidylinositol 4-phosphate 5-kinase type-1 alpha (Homo sapiens) (Q99755 whole entry): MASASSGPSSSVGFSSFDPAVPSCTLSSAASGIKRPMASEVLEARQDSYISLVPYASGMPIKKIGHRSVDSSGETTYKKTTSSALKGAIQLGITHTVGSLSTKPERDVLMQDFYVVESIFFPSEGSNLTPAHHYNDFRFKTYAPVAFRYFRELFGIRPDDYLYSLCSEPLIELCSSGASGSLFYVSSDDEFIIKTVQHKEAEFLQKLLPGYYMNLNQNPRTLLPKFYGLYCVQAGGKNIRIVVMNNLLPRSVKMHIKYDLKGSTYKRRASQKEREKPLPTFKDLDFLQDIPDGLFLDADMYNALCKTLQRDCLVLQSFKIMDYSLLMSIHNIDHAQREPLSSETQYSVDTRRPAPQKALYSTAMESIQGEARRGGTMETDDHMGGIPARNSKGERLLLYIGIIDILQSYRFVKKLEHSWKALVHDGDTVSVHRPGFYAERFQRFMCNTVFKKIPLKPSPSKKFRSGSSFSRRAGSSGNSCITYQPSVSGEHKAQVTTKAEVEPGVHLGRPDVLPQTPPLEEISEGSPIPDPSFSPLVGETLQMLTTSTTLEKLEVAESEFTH
# Chain of Mitogen-activated protein kinase kinase kinase 13 (Homo sapiens) (O43283 whole entry, canonical isoform): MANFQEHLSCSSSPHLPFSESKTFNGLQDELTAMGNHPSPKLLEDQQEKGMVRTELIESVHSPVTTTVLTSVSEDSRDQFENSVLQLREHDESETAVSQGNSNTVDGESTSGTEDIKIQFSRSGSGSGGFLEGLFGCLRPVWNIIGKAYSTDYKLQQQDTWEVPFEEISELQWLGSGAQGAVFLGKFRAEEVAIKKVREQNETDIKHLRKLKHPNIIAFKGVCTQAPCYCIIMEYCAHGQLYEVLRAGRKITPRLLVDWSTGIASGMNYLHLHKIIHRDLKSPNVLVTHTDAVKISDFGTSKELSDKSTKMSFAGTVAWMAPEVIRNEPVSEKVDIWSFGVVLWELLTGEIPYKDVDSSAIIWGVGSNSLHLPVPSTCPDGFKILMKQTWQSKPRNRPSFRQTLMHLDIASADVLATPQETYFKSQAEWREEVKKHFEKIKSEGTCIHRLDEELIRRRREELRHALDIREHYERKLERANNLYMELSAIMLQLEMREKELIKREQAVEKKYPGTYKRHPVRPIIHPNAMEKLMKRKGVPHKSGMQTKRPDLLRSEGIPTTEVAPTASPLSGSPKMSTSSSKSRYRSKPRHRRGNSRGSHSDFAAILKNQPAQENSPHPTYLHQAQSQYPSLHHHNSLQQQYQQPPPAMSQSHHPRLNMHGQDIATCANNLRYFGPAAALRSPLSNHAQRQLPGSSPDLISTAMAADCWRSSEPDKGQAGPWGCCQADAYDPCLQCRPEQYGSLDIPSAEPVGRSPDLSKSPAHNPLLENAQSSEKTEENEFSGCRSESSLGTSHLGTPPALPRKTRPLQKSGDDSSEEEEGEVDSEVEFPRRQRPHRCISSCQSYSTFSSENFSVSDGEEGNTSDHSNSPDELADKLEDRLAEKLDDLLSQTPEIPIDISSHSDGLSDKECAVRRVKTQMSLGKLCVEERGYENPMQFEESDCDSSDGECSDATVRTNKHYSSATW
# Chain of Dual specificity tyrosine-phosphorylation-regulated kinase 1B (Homo sapiens) (Q9Y463 whole entry, looked up): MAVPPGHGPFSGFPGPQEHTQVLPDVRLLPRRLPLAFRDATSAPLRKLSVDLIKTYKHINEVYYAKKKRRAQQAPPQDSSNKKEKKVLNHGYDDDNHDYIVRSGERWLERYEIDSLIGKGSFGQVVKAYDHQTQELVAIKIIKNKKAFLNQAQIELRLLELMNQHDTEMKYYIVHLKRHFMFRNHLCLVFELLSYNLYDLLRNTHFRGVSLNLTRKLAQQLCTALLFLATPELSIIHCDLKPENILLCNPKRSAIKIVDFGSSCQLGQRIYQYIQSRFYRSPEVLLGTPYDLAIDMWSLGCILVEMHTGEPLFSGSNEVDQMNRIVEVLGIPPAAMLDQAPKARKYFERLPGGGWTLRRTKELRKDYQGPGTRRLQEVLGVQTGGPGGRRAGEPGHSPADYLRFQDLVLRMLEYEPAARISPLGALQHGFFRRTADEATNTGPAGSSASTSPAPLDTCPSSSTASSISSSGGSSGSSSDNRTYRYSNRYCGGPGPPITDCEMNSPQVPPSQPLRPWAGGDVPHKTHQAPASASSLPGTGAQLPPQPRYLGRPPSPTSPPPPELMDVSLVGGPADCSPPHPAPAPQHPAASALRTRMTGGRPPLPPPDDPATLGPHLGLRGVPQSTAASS
# Chain of Ephrin type-A receptor 8 (Homo sapiens) (P29322 whole entry): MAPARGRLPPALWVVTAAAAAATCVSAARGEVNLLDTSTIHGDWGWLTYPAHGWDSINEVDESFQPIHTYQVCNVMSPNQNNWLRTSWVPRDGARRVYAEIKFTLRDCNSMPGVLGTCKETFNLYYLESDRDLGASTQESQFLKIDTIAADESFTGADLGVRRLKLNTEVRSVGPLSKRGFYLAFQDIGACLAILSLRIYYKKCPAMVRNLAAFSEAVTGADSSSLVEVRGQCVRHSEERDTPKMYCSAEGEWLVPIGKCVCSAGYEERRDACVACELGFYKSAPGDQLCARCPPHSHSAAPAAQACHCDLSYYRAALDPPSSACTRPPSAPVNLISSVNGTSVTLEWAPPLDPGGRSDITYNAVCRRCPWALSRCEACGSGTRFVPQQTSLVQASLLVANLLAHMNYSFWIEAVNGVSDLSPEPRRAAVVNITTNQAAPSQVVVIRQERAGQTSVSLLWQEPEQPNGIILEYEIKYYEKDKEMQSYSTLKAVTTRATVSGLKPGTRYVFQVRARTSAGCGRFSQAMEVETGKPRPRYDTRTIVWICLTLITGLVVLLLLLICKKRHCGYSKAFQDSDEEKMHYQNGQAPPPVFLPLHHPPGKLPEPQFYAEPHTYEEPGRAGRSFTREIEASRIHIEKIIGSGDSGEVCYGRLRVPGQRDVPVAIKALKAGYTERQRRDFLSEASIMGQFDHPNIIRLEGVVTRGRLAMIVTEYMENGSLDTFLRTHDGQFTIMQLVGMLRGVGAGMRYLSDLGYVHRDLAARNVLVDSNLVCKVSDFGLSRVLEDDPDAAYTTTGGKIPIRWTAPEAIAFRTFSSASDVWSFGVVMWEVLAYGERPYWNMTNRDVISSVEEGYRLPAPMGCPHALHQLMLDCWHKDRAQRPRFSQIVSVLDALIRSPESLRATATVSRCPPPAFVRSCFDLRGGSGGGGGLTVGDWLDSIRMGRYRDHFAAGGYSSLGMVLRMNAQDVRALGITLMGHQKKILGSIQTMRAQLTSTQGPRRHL
# Chain of Mitogen-activated protein kinase 15 (Homo sapiens) (Q8TD08 whole entry): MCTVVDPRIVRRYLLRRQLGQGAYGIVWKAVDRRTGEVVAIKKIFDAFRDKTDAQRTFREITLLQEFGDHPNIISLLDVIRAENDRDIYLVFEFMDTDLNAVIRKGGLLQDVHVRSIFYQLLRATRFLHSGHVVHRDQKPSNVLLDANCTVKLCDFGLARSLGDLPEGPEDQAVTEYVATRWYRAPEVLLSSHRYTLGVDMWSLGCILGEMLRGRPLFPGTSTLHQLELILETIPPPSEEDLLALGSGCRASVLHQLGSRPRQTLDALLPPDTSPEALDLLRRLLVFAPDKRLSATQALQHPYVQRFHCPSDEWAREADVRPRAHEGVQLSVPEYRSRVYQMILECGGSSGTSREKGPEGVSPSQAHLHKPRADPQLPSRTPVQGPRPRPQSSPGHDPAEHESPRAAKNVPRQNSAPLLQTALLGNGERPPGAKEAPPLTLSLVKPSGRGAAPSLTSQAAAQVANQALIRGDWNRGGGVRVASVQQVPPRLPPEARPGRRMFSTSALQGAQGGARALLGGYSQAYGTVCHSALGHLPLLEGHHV
# Chain of LIM domain kinase 1 (Homo sapiens) (P53667 whole entry, looked up, the tested form may be a part): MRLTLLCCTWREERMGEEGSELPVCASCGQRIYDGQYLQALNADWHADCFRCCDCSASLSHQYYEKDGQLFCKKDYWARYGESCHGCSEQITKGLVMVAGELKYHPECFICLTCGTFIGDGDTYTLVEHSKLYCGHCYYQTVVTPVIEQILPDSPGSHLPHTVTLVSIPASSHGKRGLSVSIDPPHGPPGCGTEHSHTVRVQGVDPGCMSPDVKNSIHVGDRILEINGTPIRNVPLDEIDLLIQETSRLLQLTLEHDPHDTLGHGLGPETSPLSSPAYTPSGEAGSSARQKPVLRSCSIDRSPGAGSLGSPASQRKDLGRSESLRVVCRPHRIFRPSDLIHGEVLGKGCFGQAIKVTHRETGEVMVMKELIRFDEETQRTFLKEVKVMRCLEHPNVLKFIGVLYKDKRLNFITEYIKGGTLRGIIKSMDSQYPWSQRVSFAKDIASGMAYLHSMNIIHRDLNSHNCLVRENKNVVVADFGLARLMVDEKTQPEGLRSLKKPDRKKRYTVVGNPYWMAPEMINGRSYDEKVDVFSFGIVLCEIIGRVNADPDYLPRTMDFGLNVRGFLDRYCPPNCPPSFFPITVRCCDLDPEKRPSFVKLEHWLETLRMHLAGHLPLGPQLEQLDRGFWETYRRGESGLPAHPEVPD
structure (smiles),measurement,setting,value
CC(C)(O)c1cncc(-c2nc3ccc(F)cc3n2C2CC2)c1 [MSD-CYP11B2],residual activity,[1],100%
same,inhibition,[2],74.6%
same,residual activity,[3],94%
same,residual activity,[4],100%
same,residual activity,[5],100%
same,residual activity,[6],88%
same,residual activity,[7],100%
same,residual activity,[8],100%
same,residual activity,[9],100%
same,residual activity,[10],100%
same,residual activity,[11],100%
same,residual activity,[12],100%
same,residual activity,[13],100%
same,inhibition,[14],1.75%
same,residual activity,[15],100%
same,residual activity,[16],100%
same,residual activity,[17],100%
same,residual activity,[18],99%
same,residual activity,[19],100%
same,residual activity,[20],100%
same,residual activity,[21],100%
same,residual activity,[22],100%
same,residual activity,[23],100%
same,residual activity,[24],100%
same,residual activity,[25],99%
same,residual activity,[26],100%
same,inhibition,[27],-9.57%
same,residual activity,[28],84%
same,residual activity,[29],76%
same,inhibition,[30],1.04%
same,residual activity,[31],44%
same,residual activity,[32],100%
same,residual activity,[33],100%
same,residual activity,[34],90%
same,residual activity,[35],100%
same,residual activity,[36],100%
same,residual activity,[37],100%
same,residual activity,[38],100%
same,residual activity,[39],100%
same,residual activity,[40],88%
same,residual activity,[41],100%
same,residual activity,[42],80%
same,residual activity,[43],90%
same,residual activity,[44],100%
same,inhibition,[45],-0.31%
FC(F)(F)c1ccc2c(c1)nc(-c1cccnc1)n2C1CC1 [MSD-CYP11B2-Negative-control],residual activity,[1],100%
same,inhibition,[2],6.92%
same,residual activity,[3],100%
same,residual activity,[4],100%
same,residual activity,[5],98%
same,residual activity,[6],100%
same,residual activity,[7],86%
same,residual activity,[8],100%
same,residual activity,[9],100%
same,residual activity,[10],97%
same,residual activity,[11],100%
same,residual activity,[12],100%
same,residual activity,[13],100%
same,inhibition,[14],6.72%
same,residual activity,[15],100%
same,residual activity,[16],100%
same,residual activity,[17],100%
same,residual activity,[18],100%
same,residual activity,[19],100%
same,residual activity,[20],100%
same,residual activity,[21],100%
same,residual activity,[22],100%
same,residual activity,[23],100%
same,residual activity,[24],100%
same,residual activity,[25],93%
same,residual activity,[26],100%
same,inhibition,[27],-2.64%
same,residual activity,[28],96%
same,residual activity,[29],71%
same,inhibition,[30],-1.22%
same,residual activity,[31],53%
same,residual activity,[32],100%
same,residual activity,[33],100%
same,residual activity,[34],87%
same,residual activity,[35],100%
same,residual activity,[36],100%
same,residual activity,[37],100%
same,residual activity,[38],100%
same,residual activity,[39],96%
same,residual activity,[40],93%
same,residual activity,[41],100%
same,residual activity,[42],100%
same,residual activity,[43],100%
same,residual activity,[44],100%
same,inhibition,[45],4.15%
